Biological target: Kelch-like ECH-associated protein 1 (KEAP1) (Homo sapiens, UniProt Q14145)
Assay type: cell-based

Kelch-like ECH-associated protein 1 (KEAP1), sequence (Q14145 whole entry): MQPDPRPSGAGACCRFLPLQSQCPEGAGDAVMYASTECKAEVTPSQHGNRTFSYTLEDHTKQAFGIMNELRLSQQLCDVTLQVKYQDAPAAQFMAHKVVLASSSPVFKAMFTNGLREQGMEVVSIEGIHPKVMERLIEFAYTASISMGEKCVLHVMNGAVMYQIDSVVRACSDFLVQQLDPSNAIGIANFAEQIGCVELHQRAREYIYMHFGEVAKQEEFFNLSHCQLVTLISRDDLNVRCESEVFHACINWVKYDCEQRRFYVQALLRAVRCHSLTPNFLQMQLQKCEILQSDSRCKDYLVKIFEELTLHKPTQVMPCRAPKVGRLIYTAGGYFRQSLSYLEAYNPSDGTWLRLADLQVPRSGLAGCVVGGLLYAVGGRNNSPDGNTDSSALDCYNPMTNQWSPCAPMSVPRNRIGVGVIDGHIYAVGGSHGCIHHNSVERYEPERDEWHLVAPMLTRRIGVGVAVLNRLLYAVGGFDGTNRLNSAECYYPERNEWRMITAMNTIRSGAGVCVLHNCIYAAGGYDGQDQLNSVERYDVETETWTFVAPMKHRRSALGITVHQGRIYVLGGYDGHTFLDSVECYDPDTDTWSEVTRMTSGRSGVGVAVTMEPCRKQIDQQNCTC

Cc1cc(C)c(C#N)c(S(C)(=O)=O)n1 [compound 1, 2-methylsulfony-4,6-diemthyl-nicotinonitrile]
EC50: 1100 nM
